Assay results published in patent US5834430A, “Potentiation of antibiotics” (BiosYnth S.r.l., priority 1995, dated 1998).
Where two headings read alike, the source gives them in different places.

What was measured:
Experiment in all cases: Checkerboard microdilution MIC of antibiotic with peptide
[1] = test system: E. cloa 12645; format: cell-based; conditions: Enterobacter cloacae, no peptide (None, 0)
Experimental: (§1) The general assay medium was L broth (pH7.2) which contained 10 g of tryptone (Difco Laboratories, Detroit, Mich.), 5 g of yeast extract (Oxoid Ltd., Hampshire, UK) and 5 g of sodium chloride per liter. After an incubation time of 18 hours at 37° C., the growth of each microtiter well is measured with a Titerteck Multiscan spectrophotometer at 405 nm. Before reading, the spectrophotometer was blanked with corresponding uninoculated drug-containing media. The minimum inhibitory concentration (MIC) of an antibiotic was defined as the lowest concentration of the antibiotic expressed in mg/l which reduced the growth of the target bacteria by ≥90% (MIC90).

[2] = test system: Ps. aeroginosa PAO1; format: cell-based; conditions: Pseudomonas aeruginosa, no peptide (None, 0)
Experimental: as §1

[3] = test system: E. coli IH3080; format: cell-based; conditions: Escherichia coli, no peptide (None, 0)
Experimental: as §1

[4] = test system: Kl. pneumoniae 12854; format: cell-based
Experimental: as §1

[5] = test system: S. typhi SH5014; format: cell-based, Salmonella typhimurium
Experimental: as §1

[6] = Experiment IV, read-out: MIC Erythrom.
[7] = Experiment III, read-out: MIC Novobiocin
[8] = Experiment I, read-out: MIC Rifampin
[9] = Experiment II, read-out: MIC Fusidic a.

Structure (SMILES): CC[C@H]1OC(=O)[C@H](C)[C@@H](O[C@H]2C[C@@](C)(OC)[C@@H](O)[C@H](C)O2)[C@H](C)[C@@H](O[C@@H]2O[C@H](C)C[C@H](N(C)C)[C@H]2O)[C@](C)(O)C[C@@H](C)C(=O)[C@H](C)[C@@H](O)[C@]1(C)O [Erythrom., erythromycin]
- MIC [1, 6]: > 100 µg/mL
- MIC [2, 6]: 100 µg/mL
- MIC [3, 6]: 30 µg/mL
- MIC ([4]; Klebsiella pneumoniae, 12854, read-out: MIC Erythrom.): > 100 µg/mL
- MIC ([5]; read-out: MIC Erythromycin.): 100 µg/mL

Structure (SMILES): CO[C@@H]1[C@@H](OC(N)=O)[C@@H](O)[C@H](Oc2ccc3c(O)c(NC(=O)c4ccc(O)c(CC=C(C)C)c4)c(=O)oc3c2C)OC1(C)C [Novobiocin, novobiocin]
- MIC [1, 7]: > 30 µg/mL
- MIC [2, 7]: > 30 µg/mL
- MIC [3, 7]: 30 µg/mL
- MIC ([4]; Klebsiella pneumoniae, 12854, read-out: MIC Novobiocin): 30 µg/mL
- MIC ([5]; read-out: MIC Novobiocin): 30 µg/mL

Structure (SMILES): CO[C@H]1/C=C/O[C@@]2(C)Oc3c(C)c(O)c4c(O)c(c(/C=N/N5CCN(C)CC5)c(O)c4c3C2=O)NC(=O)/C(C)=C\C=C\[C@H](C)[C@H](O)[C@@H](C)[C@@H](O)[C@@H](C)[C@H](OC(C)=O)[C@@H]1C [Rifampin, rifampin]
- MIC [1, 8]: 10 µg/mL
- MIC [2, 8]: > 10 µg/mL
- MIC [3, 8]: 10 µg/mL
- MIC ([4]; Klebsiella pneumoniae, 12854, read-out: MIC Rifampin): 10 µg/mL
- MIC ([5]; read-out: MIC Rifampin): 10 µg/mL

Structure (SMILES): CC(=O)O[C@H]1C[C@@]2(C)[C@@H](C[C@@H](O)[C@H]3[C@@]4(C)CC[C@@H](O)[C@@H](C)[C@@H]4CC[C@@]32C)/C1=C(\CCC=C(C)C)C(=O)O [Fusidic a., fusidic acid]
- MIC [1, 9]: > 300 µg/mL
- MIC [2, 9]: > 300 µg/mL
- MIC [3, 9]: 300 µg/mL
- MIC ([4]; Klebsiella pneumoniae, 12854, read-out: MIC Fusidic a.): > 300 µg/mL
- MIC ([5]; read-out: MIC Fusidic a.): > 300 µg/mL
